Assay results: ChEMBL document CHEMBL1201862, “PubChem BioAssay data set” (2004)
Calls of active or inactive are those of the source.

How the values were obtained:
Large T antigen = Large T antigen (Simian virus 40, UniProt P03070); format: functional, Betapolyomavirus macacae;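 further: Confirmatory-stage PubChem screen for compounds that inhibit SV40 T antigen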
[1] = molecular target: T1, Calpain-2 catalytic subunit (Sus scrofa, UniProt P43367); assay: m-calpain protease blockers, concentration series – biochemical, fluorogenic peptide substrate, dose response (AID 1420); format: functional
T1 sequence (P43367 whole entry): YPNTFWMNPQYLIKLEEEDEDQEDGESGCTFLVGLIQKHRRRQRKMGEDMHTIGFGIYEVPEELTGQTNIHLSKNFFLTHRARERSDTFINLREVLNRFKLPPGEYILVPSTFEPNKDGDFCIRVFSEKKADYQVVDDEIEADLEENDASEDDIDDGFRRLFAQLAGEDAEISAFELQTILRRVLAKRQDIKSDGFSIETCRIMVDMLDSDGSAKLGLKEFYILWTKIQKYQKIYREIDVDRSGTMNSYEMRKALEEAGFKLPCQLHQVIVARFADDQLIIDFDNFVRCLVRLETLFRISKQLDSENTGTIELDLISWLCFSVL

[2] = molecular target: T2, Carboxy-terminal domain RNA polymerase II polypeptide A small phosphatase 1 (Homo sapiens, UniProt Q9GZU7); assay: CTDSP1 inhibitors, concentration-response, biochemical, absorbance readout, ultra-high-throughput screen actives (AID 540297); format: functional
T2 sequence (Q9GZU7 whole entry): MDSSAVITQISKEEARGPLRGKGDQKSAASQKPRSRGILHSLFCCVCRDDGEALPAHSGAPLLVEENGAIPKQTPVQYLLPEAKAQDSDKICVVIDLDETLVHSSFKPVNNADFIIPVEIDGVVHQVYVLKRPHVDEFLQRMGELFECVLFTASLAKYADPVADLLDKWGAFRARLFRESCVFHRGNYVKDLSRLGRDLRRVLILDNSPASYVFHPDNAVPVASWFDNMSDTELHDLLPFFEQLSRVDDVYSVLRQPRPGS

[3] = viability of HCT116 lacking mutant beta-catenin – cell-based, human colon tumor, dose response (AID 1045); format: functional;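 further: HCT116 colon tumor cells with beta catenin knocked out; cells exposed to compound for 60 hours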
[4] = viability of PTEN-deleted HCT116 cells – cell-based, HCT116 PTEN knockout, dose response (AID 1047); format: functional;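 further: HCT116 colon tumor cells with PTEN knocked out; cells exposed to compound for 60 hours before readout; potency for loss of cell viability measured by luminescence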
[5] = non-specific 3'UTR reporter inhibition in Clone20-Shn3RL – cell-based, Renilla luciferase, cherry-picked, counter-screen for Shn3 inhibitor project, dose response (AID 624133); format: functional
[6] = reduction of Shn3 3'UTR-driven luciferase in osteoblasts – cell-based, Clone20 osteoblasts, firefly luciferase, cherry-picked, dose response (AID 624132); format: functional;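 further: firefly luciferase luminescence from reporter carrying the Shn3 3'UTR in osteoblasts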
[7] = molecular target: Voltage-dependent T-type calcium channel subunit alpha-1H (Homo sapiens, UniProt O95180); format: functional;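 further: channel activity triggered by adding a high calcium stimulation buffer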
Chain of Voltage-dependent T-type calcium channel subunit alpha-1H (O95180 whole entry): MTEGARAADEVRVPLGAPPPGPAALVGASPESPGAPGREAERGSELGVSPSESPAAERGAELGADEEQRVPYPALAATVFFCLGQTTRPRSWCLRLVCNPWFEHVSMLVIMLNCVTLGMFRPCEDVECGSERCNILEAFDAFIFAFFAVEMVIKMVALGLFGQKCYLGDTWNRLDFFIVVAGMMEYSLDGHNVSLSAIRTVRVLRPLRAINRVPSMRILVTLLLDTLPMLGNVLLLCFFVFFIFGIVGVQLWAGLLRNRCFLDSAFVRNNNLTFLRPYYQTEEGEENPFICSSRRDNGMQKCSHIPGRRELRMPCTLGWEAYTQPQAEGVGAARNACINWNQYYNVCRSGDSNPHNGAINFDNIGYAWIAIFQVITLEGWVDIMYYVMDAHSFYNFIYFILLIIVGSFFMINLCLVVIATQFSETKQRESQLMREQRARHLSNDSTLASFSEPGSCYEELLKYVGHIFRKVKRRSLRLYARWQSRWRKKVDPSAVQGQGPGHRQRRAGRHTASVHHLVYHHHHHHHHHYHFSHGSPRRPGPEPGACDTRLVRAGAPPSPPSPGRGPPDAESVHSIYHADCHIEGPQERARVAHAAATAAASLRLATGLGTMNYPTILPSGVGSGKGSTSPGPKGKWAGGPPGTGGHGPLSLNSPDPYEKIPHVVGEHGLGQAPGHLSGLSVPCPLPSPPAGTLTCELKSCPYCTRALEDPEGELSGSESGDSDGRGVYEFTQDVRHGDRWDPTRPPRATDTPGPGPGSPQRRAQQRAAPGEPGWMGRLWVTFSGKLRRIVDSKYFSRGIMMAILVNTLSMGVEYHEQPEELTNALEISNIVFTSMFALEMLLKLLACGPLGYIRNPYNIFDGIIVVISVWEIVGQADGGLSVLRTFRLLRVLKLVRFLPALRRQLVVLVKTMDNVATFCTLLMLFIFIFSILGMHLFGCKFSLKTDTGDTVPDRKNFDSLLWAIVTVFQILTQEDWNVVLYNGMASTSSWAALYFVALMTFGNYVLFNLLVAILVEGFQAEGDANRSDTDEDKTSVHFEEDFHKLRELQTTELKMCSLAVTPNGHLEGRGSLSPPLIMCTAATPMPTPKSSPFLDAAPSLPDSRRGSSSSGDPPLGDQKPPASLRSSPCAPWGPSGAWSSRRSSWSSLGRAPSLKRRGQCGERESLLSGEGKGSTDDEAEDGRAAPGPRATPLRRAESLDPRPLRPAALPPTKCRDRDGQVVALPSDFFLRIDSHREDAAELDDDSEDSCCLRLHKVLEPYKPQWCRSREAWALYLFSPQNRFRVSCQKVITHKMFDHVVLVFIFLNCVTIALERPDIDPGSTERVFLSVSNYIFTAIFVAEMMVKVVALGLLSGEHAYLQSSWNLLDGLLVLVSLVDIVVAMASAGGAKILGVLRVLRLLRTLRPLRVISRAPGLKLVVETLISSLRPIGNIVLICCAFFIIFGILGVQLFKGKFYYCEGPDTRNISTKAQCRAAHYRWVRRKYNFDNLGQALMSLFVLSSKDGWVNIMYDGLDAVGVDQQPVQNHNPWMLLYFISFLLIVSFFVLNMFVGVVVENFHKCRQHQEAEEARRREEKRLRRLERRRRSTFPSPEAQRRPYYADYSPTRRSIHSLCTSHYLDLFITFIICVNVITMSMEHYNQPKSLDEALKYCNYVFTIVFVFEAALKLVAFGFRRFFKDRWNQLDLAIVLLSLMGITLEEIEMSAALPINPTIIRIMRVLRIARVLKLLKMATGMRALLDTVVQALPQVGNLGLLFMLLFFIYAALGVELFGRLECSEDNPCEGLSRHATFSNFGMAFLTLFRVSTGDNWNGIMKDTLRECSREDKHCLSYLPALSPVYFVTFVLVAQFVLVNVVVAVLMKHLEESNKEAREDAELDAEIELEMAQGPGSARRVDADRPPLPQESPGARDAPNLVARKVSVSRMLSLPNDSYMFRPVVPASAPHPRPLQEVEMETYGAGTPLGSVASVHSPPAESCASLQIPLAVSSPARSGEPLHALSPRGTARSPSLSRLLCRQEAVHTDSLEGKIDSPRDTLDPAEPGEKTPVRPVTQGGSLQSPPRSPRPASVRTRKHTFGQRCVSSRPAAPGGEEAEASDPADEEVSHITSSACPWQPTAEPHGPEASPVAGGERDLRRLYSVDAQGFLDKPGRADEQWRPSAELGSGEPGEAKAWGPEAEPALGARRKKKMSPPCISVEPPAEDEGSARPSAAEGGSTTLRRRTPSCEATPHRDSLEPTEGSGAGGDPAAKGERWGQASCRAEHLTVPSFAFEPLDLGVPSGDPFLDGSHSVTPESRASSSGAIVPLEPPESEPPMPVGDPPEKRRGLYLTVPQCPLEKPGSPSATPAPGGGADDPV

[8] = molecular target: T3, Replicative DNA helicase DnaB (Mycobacterium tuberculosis, UniProt P9WMR3); assay: DnaB intein splicing inhibitors, dose response, biochemical, cell-free fluorescence (AID 449749); format: functional
T3 sequence (P9WMR3 whole entry): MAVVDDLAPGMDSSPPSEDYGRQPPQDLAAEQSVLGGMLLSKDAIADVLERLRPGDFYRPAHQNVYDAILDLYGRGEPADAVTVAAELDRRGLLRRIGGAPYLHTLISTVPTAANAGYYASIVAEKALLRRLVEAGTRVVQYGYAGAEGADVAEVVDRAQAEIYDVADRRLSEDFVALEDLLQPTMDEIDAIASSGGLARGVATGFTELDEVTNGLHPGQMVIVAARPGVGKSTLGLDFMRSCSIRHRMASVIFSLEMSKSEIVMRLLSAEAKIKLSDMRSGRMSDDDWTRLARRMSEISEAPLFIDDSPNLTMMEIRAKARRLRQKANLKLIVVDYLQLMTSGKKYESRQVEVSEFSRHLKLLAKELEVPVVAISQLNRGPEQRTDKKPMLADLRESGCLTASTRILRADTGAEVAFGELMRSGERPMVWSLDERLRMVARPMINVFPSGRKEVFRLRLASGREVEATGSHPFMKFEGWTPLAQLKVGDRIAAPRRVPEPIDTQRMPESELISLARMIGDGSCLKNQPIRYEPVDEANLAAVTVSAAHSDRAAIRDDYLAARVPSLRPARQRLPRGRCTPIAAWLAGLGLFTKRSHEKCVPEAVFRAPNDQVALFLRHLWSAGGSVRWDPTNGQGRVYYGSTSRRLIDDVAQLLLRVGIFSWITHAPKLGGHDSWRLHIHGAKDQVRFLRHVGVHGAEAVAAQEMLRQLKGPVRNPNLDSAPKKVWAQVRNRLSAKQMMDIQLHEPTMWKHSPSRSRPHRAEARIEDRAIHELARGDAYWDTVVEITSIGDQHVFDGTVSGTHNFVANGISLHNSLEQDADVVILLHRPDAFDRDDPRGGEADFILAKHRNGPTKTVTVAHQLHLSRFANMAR

Protein RecA = molecular target: T4, Protein RecA (Mycobacterium tuberculosis, UniProt P9WHJ3); assay: Fluorescence Cell-Free Homogeneous Dose Retest to Identify Inhibitors of RecA-Intein Splicing Activity. [Related pubchem assays (depositor defined):AID2097, AID2223, AID489010, AID492950]; format: functional
T4 sequence (P9WHJ3 whole entry): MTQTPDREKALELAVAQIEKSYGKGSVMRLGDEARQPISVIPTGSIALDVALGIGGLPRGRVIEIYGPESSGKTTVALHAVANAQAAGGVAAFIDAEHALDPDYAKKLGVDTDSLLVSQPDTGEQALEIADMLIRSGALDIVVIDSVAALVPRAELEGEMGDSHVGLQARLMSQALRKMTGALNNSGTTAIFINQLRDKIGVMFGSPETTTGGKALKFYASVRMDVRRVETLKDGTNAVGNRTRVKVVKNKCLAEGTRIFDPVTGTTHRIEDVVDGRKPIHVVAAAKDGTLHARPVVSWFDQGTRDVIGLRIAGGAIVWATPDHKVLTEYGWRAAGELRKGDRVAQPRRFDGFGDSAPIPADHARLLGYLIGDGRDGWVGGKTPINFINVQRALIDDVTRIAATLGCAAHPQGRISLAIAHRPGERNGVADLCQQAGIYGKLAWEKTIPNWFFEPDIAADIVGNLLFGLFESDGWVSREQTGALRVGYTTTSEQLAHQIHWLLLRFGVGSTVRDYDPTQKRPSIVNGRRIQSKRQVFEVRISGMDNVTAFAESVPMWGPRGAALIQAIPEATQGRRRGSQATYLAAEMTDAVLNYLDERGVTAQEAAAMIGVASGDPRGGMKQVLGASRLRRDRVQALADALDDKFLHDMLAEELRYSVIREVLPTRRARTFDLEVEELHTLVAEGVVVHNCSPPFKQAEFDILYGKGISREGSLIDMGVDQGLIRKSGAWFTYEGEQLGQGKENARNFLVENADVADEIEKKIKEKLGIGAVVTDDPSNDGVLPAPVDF

cells [9] = format: functional, cell-based
cells [10] = format: functional, cell-based; remark: listed apart in the source
[11] = Luminescence Cell-Based Dose Retest to Confirm Inhibitors of Cancer Stem Cells. [Related pubchem assays (depositor defined):AID2717, AID2721]; format: functional; details: Homo sapiens
[12] = viability of uninfected HEp-2 cells – cell-based, HTS, cytotoxicity control for RSV inhibitor project, dose response (AID 2410); format: functional; details: human respiratory syncytial virus
Cytochrome P450 3A4 = Cytochrome P450 3A4 (Homo sapiens, UniProt P08684);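 further: CYP3A4 tested as one member of a cytochrome P450 panel screen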
Chain of Cytochrome P450 3A4 (P08684 whole entry): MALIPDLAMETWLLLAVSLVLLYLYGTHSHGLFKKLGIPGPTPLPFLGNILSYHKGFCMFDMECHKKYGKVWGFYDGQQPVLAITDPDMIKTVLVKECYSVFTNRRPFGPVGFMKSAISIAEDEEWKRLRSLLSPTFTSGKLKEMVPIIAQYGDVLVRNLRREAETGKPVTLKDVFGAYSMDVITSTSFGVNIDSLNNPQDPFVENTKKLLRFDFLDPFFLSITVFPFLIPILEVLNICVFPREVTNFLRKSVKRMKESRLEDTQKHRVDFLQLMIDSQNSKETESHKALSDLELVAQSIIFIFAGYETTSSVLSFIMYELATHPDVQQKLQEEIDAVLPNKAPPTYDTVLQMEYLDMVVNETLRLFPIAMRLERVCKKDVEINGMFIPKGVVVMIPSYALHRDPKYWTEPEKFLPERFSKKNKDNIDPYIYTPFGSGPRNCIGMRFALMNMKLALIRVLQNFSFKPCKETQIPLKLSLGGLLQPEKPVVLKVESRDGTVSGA

Cytochrome P450 2C19 = Cytochrome P450 2C19 (Homo sapiens, UniProt P33261); assay: Cytochrome panel assay with activity outcomes. Panel member name: p450-cyp2c19 Compounds with AC50 equal or less than 10 uM are considered active; format: functional; details: read-out: AC50
Chain of Cytochrome P450 2C19 (P33261 whole entry): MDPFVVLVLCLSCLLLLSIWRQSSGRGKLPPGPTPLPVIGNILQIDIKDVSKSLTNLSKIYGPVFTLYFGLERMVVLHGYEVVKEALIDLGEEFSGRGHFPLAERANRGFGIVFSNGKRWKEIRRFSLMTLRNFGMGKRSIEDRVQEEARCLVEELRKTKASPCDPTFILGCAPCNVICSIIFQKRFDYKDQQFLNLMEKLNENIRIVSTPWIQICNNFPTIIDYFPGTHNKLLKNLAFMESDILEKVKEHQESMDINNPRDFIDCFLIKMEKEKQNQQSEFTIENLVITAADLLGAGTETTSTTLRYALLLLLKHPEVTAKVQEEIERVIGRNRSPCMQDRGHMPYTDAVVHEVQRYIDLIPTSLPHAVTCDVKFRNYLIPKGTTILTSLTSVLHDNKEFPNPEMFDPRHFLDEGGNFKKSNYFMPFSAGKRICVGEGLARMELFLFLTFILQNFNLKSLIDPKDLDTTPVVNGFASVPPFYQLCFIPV

[13] = alpha-synuclein stem-loop luciferase translation blockers – H4 neuroglioma cells, luminescence, confirmation (AID 1988); format: functional, cell-based
[14] = Luminescence Cell-Based Dose Response HTS to Identify Inhibitors of 5'UTR Stem-Loop Driven Prion Protein mRNA Translation in H4 Neuroglioblastoma Cells. [Related pubchem assays: 1827 (Project Summary), 1813 (Primary HTS)]; format: functional
[15] = luciferase reporter signal suppression in cells – H4 neuroglioma cells, luminescence, dose response (AID 1990); format: functional, cell-based

Chain of Large T antigen (P03070 whole entry): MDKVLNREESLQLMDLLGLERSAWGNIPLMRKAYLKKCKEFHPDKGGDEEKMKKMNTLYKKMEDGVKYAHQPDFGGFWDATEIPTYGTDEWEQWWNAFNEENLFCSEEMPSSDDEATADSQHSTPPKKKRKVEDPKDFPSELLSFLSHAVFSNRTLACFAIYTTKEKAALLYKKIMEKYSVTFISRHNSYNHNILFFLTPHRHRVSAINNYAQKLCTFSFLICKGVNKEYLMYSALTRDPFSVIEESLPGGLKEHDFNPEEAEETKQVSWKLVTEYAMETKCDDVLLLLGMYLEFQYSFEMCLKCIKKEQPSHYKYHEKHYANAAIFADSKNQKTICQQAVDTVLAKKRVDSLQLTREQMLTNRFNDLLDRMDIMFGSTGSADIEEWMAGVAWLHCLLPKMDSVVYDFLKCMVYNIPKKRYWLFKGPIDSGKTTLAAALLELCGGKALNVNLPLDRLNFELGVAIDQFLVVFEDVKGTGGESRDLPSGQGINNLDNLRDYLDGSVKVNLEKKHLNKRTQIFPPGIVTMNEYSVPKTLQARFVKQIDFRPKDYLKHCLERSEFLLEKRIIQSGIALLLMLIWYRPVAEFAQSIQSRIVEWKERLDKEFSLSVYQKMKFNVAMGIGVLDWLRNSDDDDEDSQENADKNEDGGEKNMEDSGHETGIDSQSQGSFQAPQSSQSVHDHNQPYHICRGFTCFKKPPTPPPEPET

Compound: CC(O)CCc1ccc(O)cc1 (configuration not stated)
- IC50 (Large T antigen): 25.4 µM (active)

Compound: COc1ccccc1-n1c([S-])c(C(=O)Nc2ccccc2C(F)(F)F)[n+]2ccc(C(=O)NCCO)cc12
- IC50 [1]: 6.82 µM (not active)

Compound: O=S(=O)(c1ccc2c(c1)CCCN2)N1CCCC2CCCCC21 (configuration not stated)
- IC50 [1]: 12.4 µM (not active)

Compound: O=C1C=C(O)c2cccc(O)c2C1=O
- IC50 [2]: 44.5 µM (active)

Compound: COC(=O)c1c(NC(=O)c2ccc(S(=O)(=O)N3CCOCC3)cc2)sc2c1CCN(C)C2
- EC50 [3]: 14.9 µM (active)
- EC50 [4]: 23.8 µM (active)

Compound: Cc1cc(NC(=O)CSc2sc3c(O)cc(=O)[nH]c3c2C#N)ccc1Br
- IC50 [2]: 3.74 µM (active)

Compound: O=C1c2ccccc2C(=O)N1CCCCSc1nnnn1-c1ccccc1
- IC50 [1]: 9.41 µM (not active)

Compound: O=C1CC(c2ccccc2)CC(=O)C1=CNc1cccc(Cl)c1 (configuration not stated)
- AC50 [5]: 19.8 µM (active)
- AC50 [6]: 4.94 µM (active)

Compound: CCC(=O)n1nc(NCc2ccccc2OC)nc1NCc1ccccc1OC
- EC50 [7]: 1.68 µM (active)

Compound: O=C(CSC1=NCCS1)Nc1ccc(S(=O)(=O)N2CCCCCC2)cc1
- AC50 [8]: 21.8 µM (active)
- EC50 [7]: 7.64 µM (active)
- EC50 (Protein RecA): 10.1 µM (active)

Compound: COc1ccc(OC)c2sc(N3CCN(C(=O)c4ccc5ncsc5c4)CC3)nc12
- EC50 (cells [9]): > 350 µM (not active)
- EC50 (cells [10]): > 350 µM (not active)

Compound: CC(C)=CC(=O)OCC(=O)NC(=O)NC(C)(C)C
- IC50 [1]: > 50 µM (not active)

Compound: CCNc1nc(NCC)n2c(SC(C(=O)Nc3cc(Cl)cc(Cl)c3)c3ccccc3)nnc2n1 (configuration not stated)
- AC50 [11]: 1.59 µM (active)
- EC50 [3]: 6.35 µM (active)
- CC50 [12]: 6.19 µM (active)
- EC50 [4]: 5.99 µM (active)

Compound: CCOc1ccc2nc(Cl)c(C3CC(c4ccccc4)=NN3C(=O)c3cccs3)cc2c1 (configuration not stated)
- EC50 [3]: 3.9 µM (active)
- EC50 [4]: 4.07 µM (active)

Compound: CCCCOc1ccc(C(=O)NCC(=O)OC2CCOC2=O)cc1 (configuration not stated)
- EC50 (cells [9]): > 350 µM (not active)
- EC50 (cells [10]): > 350 µM (not active)

Compound: COCc1ccc(C(=O)N2CCCC(CCC(=O)NCc3ccccc3F)C2)o1 (configuration not stated)
- EC50 (cells [9]): > 350 µM (not active)
- EC50 (cells [10]): > 350 µM (not active)

Compound: c1ccc(-c2ccccc2-c2nc(-c3cccnc3)no2)cc1
- EC50 [7]: 8.07 µM (active)

Compound: CC(C)Sc1oc(-c2ccco2)nc1S(=O)(=O)c1ccc(F)cc1
- EC50 [7]: 7.9 µM (active)

Compound: Cc1cccc(OCCCSc2nc3ccccc3[nH]2)c1
- EC50 [7]: 3.47 µM (active)

Compound: CNC(=S)N1CCN(c2ccc(OC)cc2)CC1
- IC50 (Large T antigen): 34 µM (active)

Compound: COc1cccc(C2=CC(c3cccs3)n3nnnc3N2)c1 (configuration not stated)
- IC50 [1]: 1.42 µM (not active)

Compound: COc1ccc(CC(=O)Nc2ccc(-c3noc(-c4cccc(OC)c4)n3)cc2)cc1
- AC50 (Cytochrome P450 3A4): 1 µM (inconclusive)
- EC50 [3]: 11.8 µM (active)
- AC50 (Cytochrome P450 2C19): 4.47 µM (inconclusive)
- EC50 [4]: 14.9 µM (active)

Compound: COc1cc(CNc2ccc3c(c2)CCC3)cc(OC)c1O
- IC50 (Large T antigen): > 100 µM (active)

Compound: CC(=O)Nc1ccc(S(=O)(=O)N2CCc3c(Cl)cccc3C2)cc1
- EC50 [7]: 4.82 µM (active)

Compound: C#CCN1C(=O)C(O)(CC(=O)c2cccc(OC)c2)c2ccccc21 (configuration not stated)
- EC50 [3]: 19.3 µM (active)
- EC50 [4]: 19.2 µM (active)

Compound: CCOC(=O)C(NC(C)=O)(N1CCOCC1)C(F)(F)F (configuration not stated)
- EC50 (cells [9]): > 350 µM (not active)
- EC50 (cells [10]): > 350 µM (not active)

Compound: CN(CCS(=O)(=O)c1ccc(Cl)cc1)Cc1cccnc1
- EC50 (cells [9]): > 350 µM (not active)
- EC50 (cells [10]): > 350 µM (not active)

Compound: COc1ccc(-c2cc(C(=O)NC(Cc3cc4ccccc4[nH]3)C(=O)O)c(C)o2)cc1OC (configuration not stated)
- IC50 [1]: 4.12 µM (not active)

Compound: O=c1c2ccccc2nc2sc(Nc3ccc(F)cc3)nn12
- IC50 [2]: 8.04 µM (active)

Compound: O=C(CSc1nc2ccccc2[nH]1)NC1CCCC1
- IC50 [2]: 6.85 µM (active)

Compound: O=C(CSc1ncccc1-c1nc2ccccc2[nH]1)NCc1ccco1
- IC50 [2]: 10.3 µM (active)

Compound: O=C(/C=C/c1cccc(OCc2ccccc2)c1)c1cccnc1
- EC50 [3]: 3.79 µM (active)
- EC50 [4]: 5.59 µM (active)

Compound: O=C(Nc1ccccc1F)c1cc(-c2ccco2)nc2ccccc12
- IC50 [2]: 8.25 µM (active)

Compound: COc1cc([C@@H]2Oc3cc(C4Oc5cc(O)cc(O)c5C(=O)[C@H]4O)ccc3O[C@H]2CO)ccc1O (some centres not stated)
- IC50 (Large T antigen): 57.5 µM (active)

Compound: O=C(CCCCCNC(=O)c1ccccc1)N/N=C/c1ccco1
- IC50 [2]: 29.2 µM (active)

Compound: Cc1c(Cl)cccc1NC(=S)N/N=C/c1ccccc1Cl
- EC50 (cells [9]): > 350 µM (not active)
- EC50 (cells [10]): > 350 µM (not active)

Compound: O=C(N/N=C1/CCCc2ccccc21)c1cc([N+](=O)[O-])cc([N+](=O)[O-])c1
- IC50 [1]: 21.8 µM (not active)

Compound: CCO/C(O)=C1\C(C)=NC2=C(C1c1ccc([N+](=O)[O-])cc1)S(=O)(=O)c1ccccc12 (configuration not stated)
- EC50 [13]: 23.9 µM (active)
- EC50 [14]: 17.8 µM (active)
- EC50 [3]: 31.4 µM (active)
- EC50 [15]: 17.2 µM (active)
- EC50 [4]: 29 µM (active)

Compound: CC(C)(C)CC(C)(C)c1ccc(OCC(=O)N/N=C/c2ccc(S(=O)(=O)O)o2)cc1
- IC50 [1]: > 50 µM (not active)
